# Laboratory results from patent publication EP1598418A1, “STABILISED COMPOSITION FOR FLUORIMETRIC, COLORIMETRIC OR CHEMOLUMINESCENT ASSAYS, KITS CONTAINING SAME AND PRODUCTION METHOD THEREOF” (BIOTOOLS BIOTECHNOLOGICAL & MEDICAL LABORATORIES, S.A., priority 2003, dated 2004).
# What was measured:
# Details in all cases: conserved at T 4 °C, vs fresh mixture
# [1] = system: oligonucleotides chemically modified by including biotin and/or digoxygenin groups; test: Amplification with desiccated biotin/digoxygenin oligonucleotides and colorimetric ELISA plate assay (Example 7); format: biochemical, oncogenic HPV
# Experimental: To do so, 4 oligonucleotides were designed that hybridised with the genome of region E6-E7 of oncogenic HPV species.
# To do so, an ELISA microplate with a high-binding capacity to streptoavidin (Biospa) was activated following a standard fixing protocol. Then, after blocking the plate by incubation with gelatine, the amplified products of the stabilising mixtures 1, 2 and 3 described in Example 7.A were analysed by a colorimetry assay according to the following experimental process: • A.- Amplification products using an onligonucleotide marked with digoxygenin (mixture 1 in Example 7.A). The biotinated probe A11 was fixed to the plate and the amplified product was hybridised. […] The amplification product was fixed to the plate with the first biotinilate and then hybridised with the first A12 marked with digoxygenin.
# [2] = system: streptoavidin conjugated with HRP (Str-HRP) and anti-digoxygenin conjugated with alkaline phospatase (anti-DIG-AP); test: Colorimetric ELISA plate activity test of desiccated, stabilised conjugates (Example 8); format: biochemical, HPV 16
# Experimental: In 0.2 ml amplification tubes were added 100 microlitres of a 1/250 dilution in a blocking solution of the conjugate Str-HRP (Biospa). In parallel, 0.2 ml phials were prepared in which 100 microlitres were added of a 1/250 dilution in a blocking solution of anti-DIG-AP (Sigma).
# For the activity assay of the conjugate anti-DIG-AP an ELISA plate was used in which the dimples had been previously coated with streptoavidin. For the activity assay of conjugate Str-HRP a plate was used instead with dimples previously coated with anti-DIG antibodies. The amplified products were incubated in each plate to allow the immobilisation of the amplicons in the plate.
# [3] = system: Molecular Beacon (MB) probe; test: Real-time amplification with desiccated, stabilised reaction mixture with Molecular Beacon probe after storage (Example 3); format: biochemical, P. falciparum
# TaqMan probes = test: Real-time amplification with desiccated, stabilised reaction mixture with TaqMan probes after storage (Example 2); format: biochemical, P. falciparum
# [4] = system: DTCS Quick Start Master Mix; test: Sequencing reaction with desiccated, stabilised mixture with fluorescent terminators after storage (Example 6); format: biochemical, human papillomavirus
# Experimental: To test the possibility of gelling reaction mixtures for sequencing nucleic acids the CEQ 200 Dye Terminator Cycle Sequencing (DTCS) Quick Start Kit (Beckman Coulter) was employed, which uses a PCR sequencing system in a single tube by incorporating four different fluorescent terminators. The sequencing reactions were later analysed in a CEQ 2000 XL DNA Analysis System (Beckman Coulter) capillary electrophoresis automatic sequencing system.
# Reaction mixtures were prepared containing 4 microlitres of DTCS Quick Start Master Mix, 1 microlitre of universal primer M13-17 and the suitable volume of each stabilising mixture shown in Table 1.
# In parallel, in order to check the evolution of the activity of the desiccated and stabilised tubes, the same plasmid was sequenced using a fresh sequencing mixture in standard conditions. Finally, the sequencing reactions were analysed in the CEQ 200XL system following the supplier's instructions.
# FRET probes = test: Real-time amplification with desiccated, stabilised reaction mixture with FRET probes after storage (Example 1); format: biochemical, P. falciparum
# [5] = system: nucleic acids immobilised in modified glasses; test: Colorimetric assay of stabilised nucleic acids immobilised in modified glasses (Example 10.3); format: biochemical, HPV 16
# Experimental: Approach 1. Stabilisation of supports with previously fixed nucleic acids. HPV specific probes were fixed to glass supports pre-treated with polylysiun, aldehyde, epoxy, superepoxy and silane. To do so, in each support slide 1 microlitre spots were applied of the solution of each oligonucleotide at a concentration of 20 µM in the conditions indicated for each glass format. The slides with the immobilised oligonucleotides were then coated with a thin layer of each of the stabilising mixtures and then desiccated in a vacuum oven at 25°C and 50 mbar pressure.
# (§1) Approach 2. Fixation to the slides of the nucleic acids pre-mixed with the stabilising mixtures. A mixture was prepared of each of the probes with the suitable volumes of the stabilising mixtures described in Table 1. Then the mixtures of oligonucleotides were applied to the various slides with the fixing conditions indicated for each glass format.
# To test the viability of each slide prepared, a colorimetric assay was performed with formation of precipitate products. To do so, the slides were washed for 5 minutes in PBS 1X at room temperature to eliminate the protective layer. Then the slides were incubated in the presence of an amplified and previously denatured HPV 16 product using the probes A11 and A12.
# [6] = system: Anti-digoxygenin antibodies; test: Colorimetric assay of stabilised proteins immobilised in modified glasses (Example 10.4); format: biochemical, P. falciparum
# Experimental: To test the possibility of stabilising proteins that have been previously immobilised in pre-treated glass supports, the usual format of microarray systems, two different alternatives were tested as in the previous experiment.
# Approach 1. Stabilisation of supports with previously fixed protein. Anti-digoxygenin antibodies were fixed to glass supports pre-treated with aldehyde. To do so, in each support slide 1 microlitre spots were applied of the solution of each protein at a concentration of 30 ng/µl. The slides with the immobilised protein were then coated with a thin layer of each of the stabilising mixtures and then desiccated in a vacuum oven at 25°C and 50 mbar pressure.
# as §1, with “protein” for “nucleic acids”, “protein” for “oligonucleotides”
# To test the viability of each slide prepared, a colorimetric assay was performed with formation of precipitate products. To do so, the slides were washed for 5 minutes in PBS 1X at room temperature to eliminate the protective layer.
# [7] = system: nucleic acids immobilised in ELISA microplates; test: Amplification and colorimetric detection with stabilised nucleic acids immobilised in ELISA microplates (Example 10.1)
# [8] = system: probes marked with biotin or digoxygenin groups; test: Synthesis of digoxygenin-marked probes with desiccated mixtures and molecular hybridisation test (Example 9)
# antidigoxygenin antibody = test: Colorimetry assay of stabilised protein immobilised in ELISA microplates (Example 10.2); format: biochemical, HPV
# Experimental: To do so each dimple was incubated with 1µg of antidigoxygenin antibody (Roche).
# The amplified product was incubated for 30 minutes in the dimples with the antibody immobilised. The amplified products immobilised in the plate by the union of the digoxygenin group of the amplicons and the immobilised anti-digoxygenin group were analysed by a colorimetric assay. […] The colorimetric reaction was finally analysed by measuring absorption at 415 nm.
SMILES,activity of stabilising mixtures [1],activity of stabilising mixtures [2],activity of stabilising mixtures [3],activity of stabilising mixtures (TaqMan probes),activity of stabilising mixtures [4],activity of stabilising mixtures (FRET probes),activity of stabilising mixtures [5],activity of stabilising mixtures [6],activity of stabilising mixtures [7],activity of stabilising mixtures [8],activity of stabilising mixtures (antidigoxygenin antibody)
OCC(O)CO [Glycerol],"++ (++, positive with 50-90% of the activity of the fresh mixture)","++ (++, positive with 50-90% of the activity of the fresh mixture)","++ (++, positive with 50-90% of the activity of the fresh mixture)","++ (++, positive with 50-90% of the activity of the fresh mixture)","++ (++, positive with 50-90% of the activity of the fresh mixture)","++ (++, positive with 50-90% of the activity of the fresh mixture)","++ (++, positive with 50-90% of the activity of the fresh mixture)","++ (++, positive with 50-90% of the activity of the fresh mixture)","++ (++, positive with 50-90% of the activity of the fresh mixture)","++ (++, positive with 50-90% of the activity of the fresh mixture)","++ (++, positive with 50-90% of the activity of the fresh mixture)"
OC[C@@H](O)[C@@H](O)[C@H](O)[C@@H](O)CO [Sorbitol],"++ (++, positive with 50-90% of the activity of the fresh mixture)","++ (++, positive with 50-90% of the activity of the fresh mixture)","++ (++, positive with 50-90% of the activity of the fresh mixture)","++ (++, positive with 50-90% of the activity of the fresh mixture)","++ (++, positive with 50-90% of the activity of the fresh mixture)","++ (++, positive with 50-90% of the activity of the fresh mixture)","++ (++, positive with 50-90% of the activity of the fresh mixture)","++ (++, positive with 50-90% of the activity of the fresh mixture)","++ (++, positive with 50-90% of the activity of the fresh mixture)","++ (++, positive with 50-90% of the activity of the fresh mixture)","++ (++, positive with 50-90% of the activity of the fresh mixture)"
